≈ marks a conversion by molar mass, not a printed value. Blank lines part the entries; values can stand above or below the molecule they belong to.
What was measured:
[1] = Lipophilicity, log P of the compound; format: physicochemical; conditions: octanol/water
[2] = Solubility of the compound; format: physicochemical
[3] = biological target: T1, Fructose-bisphosphate aldolase class 2 (Synechocystis sp. (strain PCC 6803 / Kazusa), UniProt Q55664); assay: (§1) Inhibition of recombinant Synechocystis sp. PCC 6803 FBA2 expressed in Escherichia coli BL21 (DE3) using FBP as substrate measured over 5 mins
T1 sequence (Q55664 whole entry): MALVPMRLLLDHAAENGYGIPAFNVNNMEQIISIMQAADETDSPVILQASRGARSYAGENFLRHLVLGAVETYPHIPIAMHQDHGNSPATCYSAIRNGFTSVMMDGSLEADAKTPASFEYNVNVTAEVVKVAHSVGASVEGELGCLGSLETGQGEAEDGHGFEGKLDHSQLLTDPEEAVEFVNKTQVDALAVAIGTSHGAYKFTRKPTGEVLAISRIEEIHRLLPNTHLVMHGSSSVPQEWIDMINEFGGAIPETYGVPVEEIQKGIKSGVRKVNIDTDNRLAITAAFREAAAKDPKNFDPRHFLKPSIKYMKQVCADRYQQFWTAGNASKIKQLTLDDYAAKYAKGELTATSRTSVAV

[4] = biological target: T2, Fructose-bisphosphate aldolase class 2 (Synechocystis sp. (strain PCC 6803 / Kazusa)) (UniProt Q55664); assay: as §1; parameters: concentration or dose not given beside the values
T2 sequence (whole entry): T1 sequence (Q55664 whole entry)

[5] = biological target: Fructose-bisphosphate aldolase class 2 (Synechocystis sp. (strain PCC 6803 / Kazusa), UniProt Q55664, S50A); assay: Inhibition of recombinant Synechocystis sp. PCC 6803 FBA2 S50A mutant expressed in Escherichia coli BL21 (DE3) using FBP as substrate measured over 5 mins
[6] = biological target: Fructose-bisphosphate aldolase class 2 (Synechocystis sp. (strain PCC 6803 / Kazusa), UniProt Q55664, R51A); assay: Inhibition of recombinant Synechocystis sp. PCC 6803 FBA2 R51A mutant expressed in Escherichia coli BL21 (DE3) using FBP as substrate measured over 5 mins
[7] = biological target: Fructose-bisphosphate aldolase class 2 (Synechocystis sp. (strain PCC 6803 / Kazusa), UniProt Q55664, S55A); assay: Inhibition of recombinant Synechocystis sp. PCC 6803 FBA2 S55A mutant expressed in Escherichia coli BL21 (DE3) using FBP as substrate measured over 5 mins
[8] = biological target: Fructose-bisphosphate aldolase class 2 (Synechocystis sp. (strain PCC 6803 / Kazusa), UniProt Q55664, N275A); assay: Inhibition of recombinant Synechocystis sp. PCC 6803 FBA2 N275A mutant expressed in Escherichia coli BL21 (DE3) using FBP as substrate measured over 5 mins
[9] = biological target: Fructose-bisphosphate aldolase class 2 (Synechocystis sp. (strain PCC 6803 / Kazusa), UniProt Q55664, D277A); assay: Inhibition of recombinant Synechocystis sp. PCC 6803 FBA2 D277A mutant expressed in Escherichia coli BL21 (DE3) using FBP as substrate measured over 5 mins
[10] = biological target: Fructose-bisphosphate aldolase class 2 (Synechocystis sp. (strain PCC 6803 / Kazusa), UniProt Q55664, T278A); assay: Inhibition of recombinant Synechocystis sp. PCC 6803 FBA2 T278A mutant expressed in Escherichia coli BL21 (DE3) using FBP as substrate measured over 5 mins
[11] = biological target: Fructose-bisphosphate aldolase class 2 (Synechocystis sp. (strain PCC 6803 / Kazusa), UniProt Q55664, R281A); assay: Inhibition of recombinant Synechocystis sp. PCC 6803 FBA2 R281A mutant expressed in Escherichia coli BL21 (DE3) using FBP as substrate measured over 5 mins
[12] = biological target: Fructose-bisphosphate aldolase class 2 (Synechocystis sp. (strain PCC 6803 / Kazusa), UniProt Q55664, R302A); assay: Inhibition of recombinant Synechocystis sp. PCC 6803 FBA2 R302A mutant expressed in Escherichia coli BL21 (DE3) using FBP as substrate measured over 5 mins
[13] = test system: Synechocystis sp. PCC 6803; assay: Selectivity ratio of Ki for recombinant Synechocystis sp. PCC 6803 FBA2 S50A mutant expressed in Escherichia coli BL21 (DE3) to Ki for recombinant Synechocystis sp. PCC 6803 FBA2 expressed in Escherichia coli BL21 (DE3)
[14] = test system: Synechocystis sp. PCC 6803; assay: Selectivity ratio of Ki for recombinant Synechocystis sp. PCC 6803 FBA2 R51A mutant expressed in Escherichia coli BL21 (DE3) to Ki for recombinant Synechocystis sp. PCC 6803 FBA2 expressed in Escherichia coli BL21 (DE3)
[15] = test system: Synechocystis sp. PCC 6803; assay: Selectivity ratio of Ki for recombinant Synechocystis sp. PCC 6803 FBA2 S55A mutant expressed in Escherichia coli BL21 (DE3) to Ki for recombinant Synechocystis sp. PCC 6803 FBA2 expressed in Escherichia coli BL21 (DE3)
[16] = test system: Synechocystis sp. PCC 6803; assay: Selectivity ratio of Ki for recombinant Synechocystis sp. PCC 6803 FBA2 N275A mutant expressed in Escherichia coli BL21 (DE3) to Ki for recombinant Synechocystis sp. PCC 6803 FBA2 expressed in Escherichia coli BL21 (DE3)
[17] = test system: Synechocystis sp. PCC 6803; assay: Selectivity ratio of Ki for recombinant Synechocystis sp. PCC 6803 FBA2 D277A mutant expressed in Escherichia coli BL21 (DE3) to Ki for recombinant Synechocystis sp. PCC 6803 FBA2 expressed in Escherichia coli BL21 (DE3)
[18] = test system: Synechocystis sp. PCC 6803; assay: Selectivity ratio of Ki for recombinant Synechocystis sp. PCC 6803 FBA2 T278A mutant expressed in Escherichia coli BL21 (DE3) to Ki for recombinant Synechocystis sp. PCC 6803 FBA2 expressed in Escherichia coli BL21 (DE3)
[19] = test system: Synechocystis sp. PCC 6803; assay: Selectivity ratio of Ki for recombinant Synechocystis sp. PCC 6803 FBA2 R281A mutant expressed in Escherichia coli BL21 (DE3) to Ki for recombinant Synechocystis sp. PCC 6803 FBA2 expressed in Escherichia coli BL21 (DE3)
[20] = test system: Synechocystis sp. PCC 6803; assay: Selectivity ratio of Ki for recombinant Synechocystis sp. PCC 6803 FBA2 R302A mutant expressed in Escherichia coli BL21 (DE3) to Ki for recombinant Synechocystis sp. PCC 6803 FBA2 expressed in Escherichia coli BL21 (DE3)
[21] = test system: Synechocystis sp. PCC 6803; assay: Algicidal activity against FBA2 over-expressing Synechocystis sp. PCC 6803 after 24 hrs by microbroth dilution method; format: functional, organism-based; conditions: Synechocystis sp. PCC 6803, 24 h
[22] = test system: Synechocystis sp. PCC 6803; assay: Algicidal activity against wild-type Synechocystis sp. PCC 6803 after 24 hrs by microbroth dilution method; format: functional, organism-based
[23] = test system: Synechocystis sp. PCC 6803; assay: Selectivity ratio of EC50 for FBA2 over-expressing Synechocystis sp. PCC 6803 to EC50 for wild-type Synechocystis sp. PCC 6803; format: functional
[24] = Synechocystis sp. PCC 6803, 24 h, read-out: EC50

Sequence of Fructose-bisphosphate aldolase class 2 (Synechocystis sp. (strain PCC 6803 / Kazusa), UniProt Q55664, R51A) (Q55664 2-359 R51A limits assumed): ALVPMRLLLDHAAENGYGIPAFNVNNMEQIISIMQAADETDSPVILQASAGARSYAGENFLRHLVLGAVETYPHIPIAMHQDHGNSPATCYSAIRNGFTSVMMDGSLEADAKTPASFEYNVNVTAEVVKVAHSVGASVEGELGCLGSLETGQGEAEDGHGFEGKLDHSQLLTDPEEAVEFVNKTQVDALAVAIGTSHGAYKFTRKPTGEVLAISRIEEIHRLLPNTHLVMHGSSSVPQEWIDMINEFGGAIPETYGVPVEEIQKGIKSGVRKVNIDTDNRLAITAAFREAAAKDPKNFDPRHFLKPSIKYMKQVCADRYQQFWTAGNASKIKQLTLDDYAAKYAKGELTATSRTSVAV
Sequence of Fructose-bisphosphate aldolase class 2 (Synechocystis sp. (strain PCC 6803 / Kazusa), UniProt Q55664, D277A) (Q55664 2-359 D277A limits assumed): as the sequence (Q55664 2-359 R51A limits assumed) above, with A50R, D276A counted along it
Sequence of Fructose-bisphosphate aldolase class 2 (Synechocystis sp. (strain PCC 6803 / Kazusa), UniProt Q55664, S50A) (Q55664 2-359 S50A limits assumed): as the sequence (Q55664 2-359 R51A limits assumed) above, with S49A, A50R counted along it
Sequence of Fructose-bisphosphate aldolase class 2 (Synechocystis sp. (strain PCC 6803 / Kazusa), UniProt Q55664, N275A) (Q55664 2-359 N275A limits assumed): as the sequence (Q55664 2-359 R51A limits assumed) above, with A50R, N274A counted along it
Sequence of Fructose-bisphosphate aldolase class 2 (Synechocystis sp. (strain PCC 6803 / Kazusa), UniProt Q55664, R281A) (Q55664 2-359 R281A limits assumed): as the sequence (Q55664 2-359 R51A limits assumed) above, with A50R, R280A counted along it
Sequence of Fructose-bisphosphate aldolase class 2 (Synechocystis sp. (strain PCC 6803 / Kazusa), UniProt Q55664, T278A) (Q55664 2-359 T278A limits assumed): as the sequence (Q55664 2-359 R51A limits assumed) above, with A50R, T277A counted along it
Sequence of Fructose-bisphosphate aldolase class 2 (Synechocystis sp. (strain PCC 6803 / Kazusa), UniProt Q55664, S55A) (Q55664 2-359 S55A limits assumed): as the sequence (Q55664 2-359 R51A limits assumed) above, with A50R, S54A counted along it
Sequence of Fructose-bisphosphate aldolase class 2 (Synechocystis sp. (strain PCC 6803 / Kazusa), UniProt Q55664, R302A) (Q55664 2-359 R302A limits assumed): as the sequence (Q55664 2-359 R51A limits assumed) above, with A50R, R301A counted along it

logP [1]: 2.96 | solubility [2]: 13100 µg/mL (≈ 42600 µM)
Compound: O=C(O)c1cccc([C@@H]2CCC[C@@H]2c2ncc3nc[nH]c3n2)c1

Ki [3]: 9.1 µM
Compound: O=C(NC(=S)Nc1cc([N+](=O)[O-])ccc1O)c1ccc(Cl)cc1

inhibition [4]: 42%
Compound: O=C(NC(=S)Nc1ccc(Br)cc1)c1ccccc1

logP [1]: 2.6 | solubility [2]: 180 µg/mL (≈ 567 µM) | Ki [3]: 16.7 µM
Compound: O=C(NC(=S)Nc1ccc([N+](=O)[O-])cc1O)c1ccccc1

logP [1]: 2.45 | solubility [2]: 160 µg/mL (≈ 504 µM)
Compound: O=CNC(=S)Nc1cc(-c2ccccc2)c([N+](=O)[O-])cc1O

logP [1]: 0.94 | solubility [2]: 730 µg/mL (≈ 2340 µM)
Compound: O[C@@H]1CC[C@@](O)(n2c(-c3ccccc3)nc3ncncc32)OC1

Compound: O=C(NC(=S)NNC(=O)c1ccccc1O)c1ccccc1
Ki [3]: 0.65 to 0.7 µM | Ki [5]: 15.2 µM | Ki [6]: 3.9 µM | Ki [7]: 1 µM | Ki [8]: 15.9 µM | Ki [9]: 7.2 µM | Ki [10]: 4.3 µM | Ki [11]: 52.3 µM | Ki [12]: 20.4 µM | Ratio Ki [13]: 23.4 | Ratio Ki [14]: 6 | Ratio Ki [15]: 1.5 | Ratio Ki [16]: 24.5 | Ratio Ki [17]: 11 | Ratio Ki [18]: 6.6 | Ratio Ki [19]: 80.5 | Ratio Ki [20]: 31 | EC50 [21]: 4.98 µM | EC50 [22, 24]: 0.28 µM | Ratio EC50 [23]: 18

Ki [3]: 0.88 µM
Compound: O=C(NC(=S)NNC(=O)c1ccccc1O)c1ccc(F)cc1
EC50 [22, 24]: 0.88 µM

logP [1]: 0.99 | solubility [2]: 290 µg/mL (≈ 923 µM)
Compound: c1ccc(-n2c(-n3cnc4ncncc43)nc3cncnc32)cc1

inhibition [4]: 60%
Compound: O=C(NC(=S)Nc1ccc([N+](=O)[O-])cc1)c1ccccc1

Ki [3]: 9.1 µM
Compound: O=C(NC(=S)Nc1cc([N+](=O)[O-])ccc1O)c1ccccc1

Ki [3]: 1.25 µM
Compound: O=C(NC(=S)NNC(=O)c1ccc(O)cc1O)c1ccccc1
EC50 [22, 24]: 1.25 µM

Ki [3]: 5.5 µM
Compound: Cc1ccc(C(=O)NC(=S)Nc2ccc([N+](=O)[O-])cc2O)cc1

logP [1]: 2.48 | solubility [2]: 160 µg/mL (≈ 504 µM)
Compound: O=CNC(=S)Nc1c(O)cc([N+](=O)[O-])cc1-c1ccccc1

inhibition [4]: 30%
Compound: O=C(NC(=S)Nc1ccccc1Cl)c1ccccc1

logP [1]: 3.32 | solubility [2]: 200 µg/mL (≈ 636 µM)
Compound: Oc1cccc(COC2CC[C@@H](O)C(Cc3ccccc3)O2)c1 (stereo not given in full)

Ki [3]: 1.87 µM
Compound: O=C(NNC(=S)NC(=O)c1ccccc1)c1cccc([N+](=O)[O-])c1
EC50 [22]: 0.39 ppm

Ki [3]: 2.8 µM
Compound: O=C(NNC(=S)NC(=O)c1ccccc1)c1ccc([N+](=O)[O-])cc1
EC50 [22, 24]: 2.7 µM

Ki [3]: 2.5 µM
Compound: O=C(NC(=S)Nc1ccc([N+](=O)[O-])cc1O)c1ccc(-c2ccccc2)cc1

logP [1]: 0.82 | solubility [2]: 440 µg/mL (≈ 1410 µM)
Compound: O[C@H]1CO[C@@H](O)C(c2nc3ncncc3n2-c2ccccc2)C1 (stereo not given in full)

inhibition [4]: 37%
Compound: O=C(NC(=S)Nc1ccccc1O)c1ccccc1

Ki [3]: 0.63 µM
Compound: O=C(NC(=S)NNC(=O)c1ccccc1O)c1ccc(Cl)cc1
EC50 [22]: 0.98 ppm

Compound: O=C(NC(=S)Nc1ccc([N+](=O)[O-])cc1O)c1ccc([N+](=O)[O-])cc1
Ki [3]: 1.9 µM | Ki [5]: 3.9 µM | Ki [6]: 3.3 µM | Ki [7]: 3.4 µM | Ki [8]: 37.9 µM | Ki [9]: 4.6 µM | Ki [10]: 87.5 µM | Ki [11]: 144 µM | Ki [12]: 24.4 µM | Ratio Ki [13]: 2.1 | Ratio Ki [14]: 1.7 | Ratio Ki [15]: 2.1 | Ratio Ki [16]: 20 | Ratio Ki [17]: 2.4 | Ratio Ki [18]: 46.3 | Ratio Ki [19]: 76 | Ratio Ki [20]: 12.9

Ki [3]: 3.1 µM
Compound: O=C(NNC(=S)NC(=O)c1ccccc1)c1cccc(Br)c1
EC50 [22]: 5.9 ppm

Ki [3]: 5.2 µM
Compound: O=C(NNC(=S)NC(=O)c1ccccc1)c1ccc(Br)cc1
EC50 [22]: 1.58 ppm

inhibition [4]: 22%
Compound: O=C(NC(=S)Nc1ccc(O)cc1)c1ccccc1

inhibition [4]: 15%
Compound: O=C(NC(=S)Nc1ccccc1[N+](=O)[O-])c1ccccc1

Compound: CCNCCc1ccccc1-c1ccccc1
logP [1]: 4 | solubility [2]: 8350 µg/mL (≈ 37100 µM)

logP [1]: 3.23 | solubility [2]: 6350 µg/mL (≈ 20800 µM)
Compound: N[C@@H](Cc1ccc(O)cc1-c1ccccc1)c1ccccc1O

Ki [3]: 3.5 µM
Compound: O=C(NNC(=S)NC(=O)c1ccccc1)c1ccc(F)cc1
EC50 [22]: 8.2 ppm

Ki [3]: 5.5 µM
Compound: O=C(NC(=S)Nc1ccc([N+](=O)[O-])cc1O)c1ccc(C(F)(F)F)cc1
